The target of assay [1] is T1, Solute carrier family 22 member 12 (Homo sapiens, UniProt Q96S37).
T1 sequence (Q96S37 whole entry): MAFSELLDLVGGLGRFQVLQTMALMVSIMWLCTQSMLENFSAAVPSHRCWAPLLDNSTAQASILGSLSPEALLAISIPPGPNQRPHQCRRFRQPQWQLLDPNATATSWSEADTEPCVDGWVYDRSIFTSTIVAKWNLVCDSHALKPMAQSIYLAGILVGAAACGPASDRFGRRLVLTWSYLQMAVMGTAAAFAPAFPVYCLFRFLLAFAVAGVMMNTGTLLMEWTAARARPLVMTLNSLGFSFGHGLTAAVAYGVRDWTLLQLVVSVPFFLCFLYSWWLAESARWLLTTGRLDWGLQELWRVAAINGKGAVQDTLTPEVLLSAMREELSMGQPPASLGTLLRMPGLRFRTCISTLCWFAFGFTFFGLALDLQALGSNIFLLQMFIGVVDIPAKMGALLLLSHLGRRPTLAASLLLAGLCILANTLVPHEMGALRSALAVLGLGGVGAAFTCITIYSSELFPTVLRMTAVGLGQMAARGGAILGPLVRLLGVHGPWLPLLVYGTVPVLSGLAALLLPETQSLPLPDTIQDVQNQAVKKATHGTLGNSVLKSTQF
Briefly: Inhibition of URAT1 (unknown origin)-mediated 14C-uric acid uptake expressed in HEK293 cells using 14C-uric acid as substrate preincubated for 30 mins followed by substrate addition and measured after 15 mins by liquid scintillation counting analysis. In kind it is cell-based.

Assay [2] has as its target T2, Solute carrier family 22 member 6 (Homo sapiens, UniProt Q4U2R8).
T2 sequence (Q4U2R8 whole entry): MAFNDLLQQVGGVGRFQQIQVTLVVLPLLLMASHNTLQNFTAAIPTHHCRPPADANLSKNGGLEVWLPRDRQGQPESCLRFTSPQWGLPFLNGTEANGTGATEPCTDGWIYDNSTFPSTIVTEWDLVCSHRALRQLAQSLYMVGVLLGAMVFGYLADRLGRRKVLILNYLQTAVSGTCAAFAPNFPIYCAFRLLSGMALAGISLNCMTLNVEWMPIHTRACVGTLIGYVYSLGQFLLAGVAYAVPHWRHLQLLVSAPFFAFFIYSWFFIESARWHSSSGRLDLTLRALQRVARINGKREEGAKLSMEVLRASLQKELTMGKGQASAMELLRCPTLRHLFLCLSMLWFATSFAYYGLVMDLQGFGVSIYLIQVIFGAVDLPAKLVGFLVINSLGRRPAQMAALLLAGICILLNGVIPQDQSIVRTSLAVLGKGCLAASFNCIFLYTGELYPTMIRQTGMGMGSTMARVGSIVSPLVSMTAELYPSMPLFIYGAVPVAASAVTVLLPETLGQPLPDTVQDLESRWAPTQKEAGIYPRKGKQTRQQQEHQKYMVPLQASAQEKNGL
Briefly: Inhibition of OAT1 (unknown origin) expressed in HEK293 cells assessed as inhibition of 6-CFL uptake preincubated for 30 mins followed by incubation with 6-CFL and measured after 15 mins by fluorescence based analysis. It counts as toxicity, cell-based.

Assay [3] deals with T3, Solute carrier family 2, facilitated glucose transporter member 9 (Homo sapiens) (UniProt Q9NRM0).
T3 sequence (whole entry): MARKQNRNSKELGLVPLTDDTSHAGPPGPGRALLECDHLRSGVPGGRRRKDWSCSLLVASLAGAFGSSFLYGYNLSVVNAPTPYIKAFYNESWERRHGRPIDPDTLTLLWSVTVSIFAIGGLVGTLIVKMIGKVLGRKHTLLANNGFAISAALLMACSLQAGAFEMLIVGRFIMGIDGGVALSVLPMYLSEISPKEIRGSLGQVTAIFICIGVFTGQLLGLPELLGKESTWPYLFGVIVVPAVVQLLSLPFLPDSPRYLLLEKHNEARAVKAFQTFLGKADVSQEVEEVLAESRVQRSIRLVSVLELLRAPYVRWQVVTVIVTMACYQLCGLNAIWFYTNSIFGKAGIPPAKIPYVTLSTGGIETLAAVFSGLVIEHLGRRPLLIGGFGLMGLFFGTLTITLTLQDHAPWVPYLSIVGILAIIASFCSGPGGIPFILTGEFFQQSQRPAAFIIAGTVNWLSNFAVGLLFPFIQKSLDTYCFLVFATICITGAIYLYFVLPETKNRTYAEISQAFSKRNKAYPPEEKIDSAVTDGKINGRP
Briefly: Inhibition of GLUT9 (unknown origin) expressed in HEK293T cells assessed as inhibition of uric acid-induced current at 10 uM by whole cell patch clamp technique. It counts as cell-based.

The target of assay [4] is T4, Broad substrate specificity ATP-binding cassette transporter ABCG2 (Homo sapiens, UniProt Q9UNQ0).
T4 sequence (Q9UNQ0 whole entry): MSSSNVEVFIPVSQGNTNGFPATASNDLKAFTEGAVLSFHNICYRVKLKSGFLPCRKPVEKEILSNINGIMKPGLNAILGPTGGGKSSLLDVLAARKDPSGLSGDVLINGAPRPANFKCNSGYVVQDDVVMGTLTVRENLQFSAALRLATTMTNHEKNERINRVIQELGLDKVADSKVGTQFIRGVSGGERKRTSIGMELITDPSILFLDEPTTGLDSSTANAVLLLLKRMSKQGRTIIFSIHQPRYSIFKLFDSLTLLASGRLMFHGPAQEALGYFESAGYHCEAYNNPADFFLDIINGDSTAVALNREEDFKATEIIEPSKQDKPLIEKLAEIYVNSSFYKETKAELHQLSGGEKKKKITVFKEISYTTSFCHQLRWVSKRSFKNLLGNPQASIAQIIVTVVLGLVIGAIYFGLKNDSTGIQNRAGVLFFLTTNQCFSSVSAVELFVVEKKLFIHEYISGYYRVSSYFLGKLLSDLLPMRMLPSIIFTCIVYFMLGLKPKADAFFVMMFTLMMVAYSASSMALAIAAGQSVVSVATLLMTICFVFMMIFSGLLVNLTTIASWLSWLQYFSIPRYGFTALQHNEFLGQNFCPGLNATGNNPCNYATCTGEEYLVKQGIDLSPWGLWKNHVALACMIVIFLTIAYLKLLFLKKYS
Kind of assay: Inhibition of ABCG2 (unknown origin) expressed in HEK293 cells membrane vesicles assessed as inhibition of ATP-induced 14C-uric acid uptake preincubated for 15 mins followed by incubation with ATP and substrate for 5 mins by liquid scintillation counting analysis. It counts as toxicity, cell membranes, Membrane vesicle.

Molecules are shown by their SMILES. pIC50: −log10 of the molar value.

As a reminder, the pIC50 is −log10 of the IC50, conventionally taken in molar units. Compound `N#Cc1ccc(Nc2cnccc2SCCCCC(=O)O)c2ccccc12` showed a negative-log IC50 (pIC50) in assay [1] of 5.64.
On the same count and under the same terms, under `CN(c1cnccc1SCCCCC(=O)O)c1ccc(C#N)c2ccccc12` stands 5.45; under `CN(c1cnccc1SCc1ccccc1C(=O)O)c1ccc(C#N)c2ccccc12`, 5.35.
Same read-out and setting: the value for `N#Cc1ccc(Oc2cnccc2SCCCCCC(=O)O)c2ccccc12` was 5.32.
Still for that read-out and setting: the value for `CN(c1cnccc1SC(C)(C)C(=O)O)c1ccc(C#N)c2ccccc12` was 5.27.
Consider `N#Cc1ccc(Nc2cnccc2SCc2ccc(-c3ccccc3C(=O)O)cc2)c2ccccc12`, for which the pIC50 in assay [1] was 5.33.
`N#Cc1ccc(Nc2cnccc2SCCCC(=O)O)c2ccccc12`: the pIC50 in assay [1] was 5.56.
Same read-out and setting: under `COc1cc(C(=O)O)ccc1CSc1ccncc1Oc1ccc(C#N)c2ccccc12` stands 4.79.
By inhibition is commonly meant the change of the read-out against control, counted positive when it falls. Turning to `N#Cc1ccc(Oc2cnccc2SCCCC(=O)O)c2ccccc12`, the pIC50 in assay [2] is 4.38; in assay [1] it was 5.91; in assay [4], 4.55. Besides, in assay [3], the inhibition came to 15.2%.
The compound `CC(C)(Sc1ccncc1Oc1ccc(C#N)c2ccccc12)C(=O)O` had a pIC50 in assay [1] of 5.28.
On the same count and under the same terms, the value for `N#Cc1ccc(Oc2cnccc2SCc2ccc(-c3ccccc3C(=O)O)cc2)c2ccccc12` was 4.82; that for `CN(c1cnccc1SCCCCCC(=O)O)c1ccc(C#N)c2ccccc12` was 5.42; that for `N#Cc1ccc(Oc2cnccc2SCc2ccc(C(=O)O)cc2)c2ccccc12` was 4.99.
As for `COc1cc(C(=O)O)ccc1CSc1ccncc1N(C)c1ccc(C#N)c2ccccc12`, the values for the negative-log IC50 (pIC50) in assay [2], in assay [1] and in assay [4] were 4.59, 6.34 and 4.46, respectively. In addition, the inhibition in assay [3] came out at 23.1%.
Consider `N#Cc1ccc(Nc2cnccc2Sc2ccc(Br)cc2CC(=O)O)c2ccccc12`, for which, in assay [1], the pIC50 is 5.39.
On the same count and under the same terms, under `N#Cc1ccc(Oc2cnccc2SCC(=O)O)c2ccccc12` stands 5.16.
Still for that read-out and setting: the value for `N#Cc1ccc(Nc2cnccc2SCc2ccc(C(=O)O)cc2)c2ccccc12` was 5.59; that for `COc1ccc(Sc2ccncc2Oc2ccc(C#N)c3ccccc23)c(CC(=O)O)c1` was 4.85.
Same read-out and setting: the value for `CN(c1cnccc1SCc1ccc(C(=O)O)cc1)c1ccc(C#N)c2ccccc12` was 5.20.
`CN(c1cnccc1SCc1cccc(C(=O)O)c1)c1ccc(C#N)c2ccccc12` gave a pIC50 in assay [1] of 5.45.
With `N#Cc1ccc(Oc2cnccc2SCc2ccccc2C(=O)O)c2ccccc12`, the negative-log IC50 (pIC50) in assay [1] is 5.16.
Still for that read-out and setting: under `CN(c1cnccc1SCCCCCCC(=O)O)c1ccc(C#N)c2ccccc12` stands 5.33.
On the same count and under the same terms, under `COc1ccc(Sc2ccncc2Nc2ccc(C#N)c3ccccc23)c(CC(=O)O)c1` stands 5.37; under `N#Cc1ccc(Nc2cnccc2SCCCCCCC(=O)O)c2ccccc12`, 5.24.
Still for that read-out and setting: the value for `N#Cc1ccc(Oc2cnccc2Sc2ccc(Br)cc2CC(=O)O)c2ccccc12` was 5.09; that for `N#Cc1ccc(Nc2cnccc2Sc2cccc([N+](=O)[O-])c2CC(=O)O)c2ccccc12` was 5.46.
In the case of `N#Cc1ccc(Oc2cnccc2SCCCCC(=O)O)c2ccccc12`, the pIC50 in assay [1] is 5.37.
On the same count and under the same terms, the value for `CN(c1cnccc1SCc1ccc(-c2ccccc2C(=O)O)cc1)c1ccc(C#N)c2ccccc12` was 5.34.
The same measure, in the same setting: under `N#Cc1ccc(Nc2cnccc2SCCCCCC(=O)O)c2ccccc12` stands 5.37; under `COc1cc(C(=O)O)ccc1CSc1ccncc1Nc1ccc(C#N)c2ccccc12`, 5.78; under `N#Cc1ccc(Oc2cnccc2SCCCCCCC(=O)O)c2ccccc12`, 5.42.
On the same count and under the same terms, the value for `N#Cc1ccc(Oc2cnccc2Sc2cccc([N+](=O)[O-])c2CC(=O)O)c2ccccc12` was 4.98; that for `N#Cc1ccc(Oc2cnccc2SCc2cccc(C(=O)O)c2)c2ccccc12` was 5.18; that for `CN(c1cnccc1SCCCC(=O)O)c1ccc(C#N)c2ccccc12` was 5.59.
In assay [1], `N#Cc1ccc(Nc2cnccc2SCc2cccc(C(=O)O)c2)c2ccccc12` gave a pIC50 of 5.71.

Values taken from ChEMBL document CHEMBL5154691, “Discovery of novel verinurad analogs as dual inhibitors of URAT1 and GLUT9 with improved Druggability for the treatment of hyperuricemia” (Eur J Med Chem, 2022).
